Data taken from PubChem BioAssay (NCI).
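Values below derive from 48-hour exposures of cells grown in 96-well plates, with endpoints linearly interpolated between the two concentrations bracketing the appropriate inhibition level. TGI: total growth inhibition.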

How the values were obtained:
Assay in all cases: DTP human tumour cell line panel, 48 h
[1] = test system: OVCAR-8 ovarian
[2] = test system: 786-0 renal
[3] = test system: SNB-75 CNS
[4] = test system: NCI-H522 lung
[5] = test system: A549 NSCLC
[6] = test system: HOP-92 NSCLC
[7] = test system: HCT-116 colon
[8] = test system: SK-MEL-28 melanoma
[9] = test system: TK-10 renal
[10] = test system: M14 melanoma
[11] = test system: MOLT-4 leukemia
[12] = test system: HCC-2998 colon
[13] = test system: HL-60(TB) leukemia
[14] = test system: RPMI-8226 leukemia
[15] = test system: HCT-15 colon
[16] = test system: SR leukemia
[17] = test system: NCI-H226 lung
[18] = test system: KM20L2 colon
[19] = test system: EKVX NSCLC
[20] = test system: K-562 leukemia
[21] = test system: SK-OV-3 ovarian
[22] = test system: SW-620 colon
[23] = test system: UACC-62 melanoma
[24] = test system: U251 CNS
[25] = test system: NCI-H460 lung
[26] = test system: UO-31 renal
[27] = test system: MALME-3M melanoma
[28] = test system: SNB-78 CNS
[29] = test system: COLO 205 colon
[30] = test system: SNB-19 CNS
[31] = test system: SK-MEL-2 melanoma
[32] = test system: SF-539 CNS
[33] = test system: RXF 393 renal
[34] = test system: DMS 273 small cell lung
[35] = test system: IGROV1 ovarian
[36] = test system: NCI-H23 lung
[37] = test system: M19-MEL melanoma
[38] = test system: HOP-62 NSCLC
[39] = test system: ACHN renal
[40] = test system: OVCAR-3 ovarian
[41] = test system: SN12C renal
[42] = test system: DMS 114 small cell lung
[43] = test system: A498 renal
[44] = test system: SF-268 CNS
[45] = test system: XF 498 CNS
[46] = test system: KM12 colon
[47] = test system: HT29 colon
[48] = test system: OVCAR-4 ovarian
[49] = test system: LXFL 529 NSCLC
[50] = test system: SF-295 CNS
[51] = test system: HOP-18 NSCLC
[52] = test system: DLD-1 colon
[53] = test system: CCRF-CEM leukemia
[54] = test system: LOX IMVI melanoma
[55] = test system: UACC-257 melanoma
[56] = test system: BT-549 breast
[57] = test system: MDA-MB-435
[58] = test system: OVCAR-5 ovarian
[59] = test system: DU-145 prostate
[60] = test system: PC-3 prostate
[61] = test system: SK-MEL-5 melanoma
[62] = test system: MDA-N
[63] = test system: HS 578T breast
[64] = test system: MDA-MB-231 breast
[65] = test system: CAKI-1 renal
[66] = test system: MCF7 breast
[67] = test system: NCI/ADR-RES ovarian
[68] = test system: T-47D breast

SMILES: CSc1nnc2n1-c1ccccc1SCC2
- TGI [1]: > 100 µM
- TGI [2]: > 100 µM
- TGI [3]: > 100 µM
- TGI [4]: > 100 µM
- TGI [5]: > 100 µM
- TGI [6]: > 100 µM
- TGI [7]: > 100 µM
- TGI [8]: > 100 µM
- TGI [9]: > 100 µM
- TGI [10]: > 100 µM
- TGI [11]: > 100 µM
- TGI [12]: > 100 µM
- TGI [13]: > 100 µM
- TGI [14]: > 100 µM
- TGI [15]: > 100 µM
- TGI [16]: > 100 µM
- TGI [17]: > 100 µM
- TGI [18]: > 100 µM
- TGI [19]: > 100 µM
- TGI [20]: > 100 µM
- TGI [21]: > 100 µM
- TGI [22]: > 100 µM
- TGI [23]: > 100 µM
- TGI [24]: > 100 µM
- TGI [25]: > 100 µM
- TGI [26]: > 100 µM
- TGI [27]: > 100 µM
- TGI [28]: > 100 µM
- TGI [29]: > 100 µM
- TGI [30]: > 100 µM
- TGI [31]: > 100 µM
- TGI [32]: > 100 µM
- TGI [33]: > 100 µM
- TGI [34]: > 100 µM
- TGI [35]: > 100 µM
- TGI [36]: > 100 µM
- TGI [37]: > 100 µM
- TGI [38]: > 100 µM
- TGI [39]: > 100 µM
- TGI [40]: > 100 µM
- TGI [41]: > 100 µM
- TGI [42]: > 100 µM
- TGI [43]: > 100 µM
- TGI [44]: > 100 µM
- TGI [45]: > 100 µM
- TGI [46]: > 100 µM
- TGI [47]: > 100 µM
- TGI [48]: > 100 µM
- TGI [49]: > 100 µM
- TGI [50]: > 100 µM
- TGI [51]: > 100 µM
- TGI [52]: > 100 µM
- TGI [53]: > 100 µM
- TGI [54]: > 100 µM
- TGI [55]: > 100 µM

SMILES: NC1=C(O)/C(=N/NS(=O)(=O)c2ccccc2)C(c2cccc(Cl)c2)O1 (stereo not drawn)
- TGI [1]: > 67.8 µM
- TGI [56]: > 100 µM
- TGI [2]: 68.5 µM
- TGI [3]: > 80.4 µM
- TGI [4]: 26.4 µM
- TGI [5]: > 100 µM
- TGI [6]: 53 µM
- TGI [7]: 53.6 µM
- TGI [57]: > 100 µM
- TGI [8]: 46.2 µM
- TGI [9]: > 95.8 µM
- TGI [10]: 67.6 µM
- TGI [11]: 19.1 µM
- TGI [12]: > 100 µM
- TGI [13]: 12.5 µM
- TGI [14]: > 47.4 µM
- TGI [15]: 27 µM
- TGI [16]: 9.15 µM
- TGI [17]: > 90.9 µM
- TGI [18]: > 85.6 µM
- TGI [58]: > 90.4 µM
- TGI [19]: > 100 µM
- TGI [20]: 27.9 µM
- TGI [21]: > 100 µM
- TGI [22]: 35.8 µM
- TGI [23]: 66.7 µM
- TGI [24]: 55.7 µM
- TGI [25]: > 100 µM
- TGI [26]: 33.5 µM
- TGI [27]: 54.8 µM
- TGI [28]: > 100 µM
- TGI [59]: > 100 µM
- TGI [29]: 30 µM
- TGI [30]: > 100 µM
- TGI [31]: 66 µM
- TGI [32]: > 81.8 µM
- TGI [60]: 54.2 µM
- TGI [33]: 29.6 µM
- TGI [34]: > 100 µM
- TGI [61]: > 100 µM
- TGI [35]: > 100 µM
- TGI [36]: 73.5 µM
- TGI [62]: 37.9 µM
- TGI [63]: 95.1 µM
- TGI [37]: > 57.2 µM
- TGI [38]: > 100 µM
- TGI [39]: > 84.1 µM
- TGI [40]: 55.5 µM
- TGI [41]: > 67.2 µM
- TGI [42]: 42.1 µM
- TGI [43]: > 100 µM
- TGI [44]: > 100 µM
- TGI [46]: > 100 µM
- TGI [47]: 55 µM
- TGI [48]: > 100 µM
- TGI [49]: 35.8 µM
- TGI [64]: 37.6 µM
- TGI [50]: > 100 µM
- TGI [51]: > 100 µM
- TGI [52]: 31.7 µM
- TGI [53]: 12 µM
- TGI [65]: > 58.4 µM
- TGI [66]: 61.7 µM
- TGI [54]: 49.2 µM
- TGI [55]: > 100 µM

SMILES: N#C[C@H](c1nc2ccccc2[nH]1)c1nc2ccccc2nc1Cl
- TGI [1]: > 100 µM
- TGI [56]: > 47.8 µM
- TGI [2]: > 100 µM
- TGI [3]: 41.1 µM
- TGI [4]: 16.2 µM
- TGI [5]: > 100 µM
- TGI [6]: > 75.6 µM
- TGI [7]: 24.2 µM
- TGI [57]: > 78 µM
- TGI [8]: 49 µM
- TGI [9]: 37.4 µM
- TGI [10]: > 50.3 µM
- TGI [11]: 16.8 µM
- TGI [12]: > 60.9 µM
- TGI [13]: 3.12 µM
- TGI [67]: > 100 µM
- TGI [14]: 36.7 µM
- TGI [68]: 12.9 µM
- TGI [15]: > 39.9 µM
- TGI [16]: 13.8 µM
- TGI [17]: 64.7 µM
- TGI [58]: > 66.2 µM
- TGI [19]: 30 µM
- TGI [20]: > 100 µM
- TGI [21]: > 100 µM
- TGI [22]: 29.5 µM
- TGI [23]: > 38.8 µM
- TGI [24]: 58.9 µM
- TGI [25]: > 53.8 µM
- TGI [26]: > 76.7 µM
- TGI [27]: 31.7 µM
- TGI [59]: 4.09 µM
- TGI [29]: 40 µM
- TGI [30]: 38.8 µM
- TGI [31]: > 59.1 µM
- TGI [32]: > 100 µM
- TGI [60]: > 52.1 µM
- TGI [33]: > 100 µM
- TGI [61]: 36 µM
- TGI [35]: 30.2 µM
- TGI [36]: > 54.3 µM
- TGI [62]: > 62.9 µM
- TGI [63]: > 100 µM
- TGI [38]: > 31.1 µM
- TGI [39]: > 46 µM
- TGI [40]: > 100 µM
- TGI [41]: 30.9 µM
- TGI [43]: > 60.6 µM
- TGI [46]: 17.1 µM
- TGI [47]: > 52.2 µM
- TGI [48]: > 53.9 µM
- TGI [64]: 35.3 µM
- TGI [50]: > 100 µM
- TGI [53]: 10.9 µM
- TGI [65]: 15.3 µM
- TGI [66]: > 100 µM
- TGI [54]: 29.3 µM
- TGI [55]: > 62.5 µM
